{"source": "paper PMC5218480", "about": "(PLoS ONE, 2017)", "tested_on": "MV-4-11 cells", "experiment": "Gene expression microarray analysis (Affymetrix PrimeView) and GSEA", "type": "cell-based, human", "set-up": "RFU PODN (11730768_x_at) / Fold change /veh PODN (11730768_x_at) / RFU LINC00158 (11744669_a_at) / Fold change /veh LINC00158 (11744669_a_at) / RFU DUSP10 (11751237_a_at) / Fold change /veh DUSP10 (11751237_a_at) / RFU ID3 (11757404_x_at) / Fold change /veh ID3 (11757404_x_at) / RFU PLEKHG5 (11737974_s_at) / Fold change /veh PLEKHG5 (11737974_s_at) / RFU LRRC4B (11730491_at) / Fold change /veh LRRC4B (11730491_at) / RFU GIMAP4 (11747438_a_at) / Fold change /veh GIMAP4 (11747438_a_at) / RFU KRT8 (11758183_x_at) / Fold change /veh KRT8 (11758183_x_at) / RFU CNN1 (11734310_a_at) / Fold change /veh CNN1 (11734310_a_at) / RFU VPS37D (11726825_at) / Fold change /veh VPS37D (11726825_at) / RFU C10orf10 (11716522_x_at) / Fold change /veh C10orf10 (11716522_x_at) / RFU KIR2DL2 /// KIR2DL4 /// KIR2DL5A /// KIR2DL5B /// KIR2DS1 /// KIR2DS2 /// KIR2DS3 /// KIR2DS4 /// KIR3DL3 /// KIR3DL3 /// KIR3DS1 (11738374_at) / Fold change /veh KIR2DL2 /// KIR2DL4 /// KIR2DL5A /// KIR2DL5B /// KIR2DS1 /// KIR2DS2 /// KIR2DS3 /// KIR2DS4 /// KIR3DL3 /// KIR3DL3 /// KIR3DS1 (11738374_at) / RFU C1QL1 (11718748_at) / Fold change /veh C1QL1 (11718748_at) / RFU TMPRSS4 (11747572_a_at) / Fold change /veh TMPRSS4 (11747572_a_at) / RFU HAMP (11756126_x_at) / Fold change /veh HAMP (11756126_x_at) / RFU RNFT2 (11725882_a_at) / Fold change /veh RNFT2 (11725882_a_at) / RFU NR4A2 (11747474_a_at) / Fold change /veh NR4A2 (11747474_a_at) / RFU ABCC12 (11746883_a_at) / Fold change /veh ABCC12 (11746883_a_at) / RFU TMEM136 (11760407_x_at) / Fold change /veh TMEM136 (11760407_x_at) / RFU CLDN22 /// WWC2 (11732394_at) / Fold change /veh CLDN22 /// WWC2 (11732394_at) / RFU HLA-DPB1 (11760878_x_at) / Fold change /veh HLA-DPB1 (11760878_x_at) / RFU SPINT1 (11716480_a_at) / Fold change /veh SPINT1 (11716480_a_at) / RFU GAP43 (11754022_s_at) / Fold change /veh GAP43 (11754022_s_at) / RFU A4GNT (11735810_at) / Fold change /veh A4GNT (11735810_at) / RFU PRB3 (11715151_x_at) / Fold change /veh PRB3 (11715151_x_at) / RFU TUBB4B (11761932_at) / Fold change /veh TUBB4B (11761932_at) / RFU CAPN14 (11732068_a_at) / Fold change /veh CAPN14 (11732068_a_at) / RFU TMCC2 (11721928_a_at) / Fold change /veh TMCC2 (11721928_a_at) / RFU IRGQ (11745062_a_at) / Fold change /veh IRGQ (11745062_a_at) / RFU FAM174B (11720279_a_at) / Fold change /veh FAM174B (11720279_a_at) / RFU TMPRSS4 (11748680_a_at) / Fold change /veh TMPRSS4 (11748680_a_at) / RFU FAM212B (11763350_a_at) / Fold change /veh FAM212B (11763350_a_at) / RFU PLEKHG5 (11743358_a_at) / Fold change /veh PLEKHG5 (11743358_a_at) / RFU ZSCAN30 (11745921_a_at) / Fold change /veh ZSCAN30 (11745921_a_at) / RFU CMKLR1 (11741424_a_at) / Fold change /veh CMKLR1 (11741424_a_at) / RFU LOC101060620 /// MAPK8IP1 (11723275_at) / Fold change /veh LOC101060620 /// MAPK8IP1 (11723275_at) / RFU SPTSSB (11747773_x_at) / Fold change /veh SPTSSB (11747773_x_at) / RFU PRSS12 (11739890_at) / Fold change /veh PRSS12 (11739890_at) / RFU BIN1 (11741810_x_at) / Fold change /veh BIN1 (11741810_x_at) / RFU WNT11 (11732464_a_at) / Fold change /veh WNT11 (11732464_a_at) / RFU C10orf10 (11716521_a_at) / Fold change /veh C10orf10 (11716521_a_at) / RFU C5orf56 (11738089_at) / Fold change /veh C5orf56 (11738089_at) / RFU CYB561 (11721691_x_at) / Fold change /veh CYB561 (11721691_x_at) / RFU ANKRD19P (11752326_a_at) / Fold change /veh ANKRD19P (11752326_a_at) / RFU OR2T12 /// OR2T33 /// OR2T8 (11738714_s_at) / Fold change /veh OR2T12 /// OR2T33 /// OR2T8 (11738714_s_at) / RFU VCAN (11748164_a_at) / Fold change /veh VCAN (11748164_a_at) / RFU JSRP1 (11732532_at) / Fold change /veh JSRP1 (11732532_at) / RFU KRTAP10-11 (11738290_x_at) / Fold change /veh KRTAP10-11 (11738290_x_at) / RFU MYO3A (11730013_a_at) / Fold change /veh MYO3A (11730013_a_at) / RFU EBF3 (11725865_a_at) / Fold change /veh EBF3 (11725865_a_at) / RFU CAMK2N1 (11719241_x_at) / Fold change /veh CAMK2N1 (11719241_x_at) / RFU C5orf56 (11738088_a_at) / Fold change /veh C5orf56 (11738088_a_at) / RFU OLFML3 (11715873_a_at) / Fold change /veh OLFML3 (11715873_a_at) / RFU LOC100653217 /// NTM (11731650_a_at) / Fold change /veh LOC100653217 /// NTM (11731650_a_at) / RFU MAPK11 (11762145_a_at) / Fold change /veh MAPK11 (11762145_a_at) / RFU FIZ1 (11724087_x_at) / Fold change /veh FIZ1 (11724087_x_at) / RFU OASL (11726364_x_at) / Fold change /veh OASL (11726364_x_at) / RFU SOX15 (11748057_x_at) / Fold change /veh SOX15 (11748057_x_at) / RFU CD79A (11719716_a_at) / Fold change /veh CD79A (11719716_a_at) / RFU HIST1H1D (11736915_at) / Fold change /veh HIST1H1D (11736915_at) / RFU CASKIN2 (11723855_a_at) / Fold change /veh CASKIN2 (11723855_a_at) / RFU LOC730098 (11760151_x_at) / Fold change /veh LOC730098 (11760151_x_at) / RFU OR4N2 (11742367_at) / Fold change /veh OR4N2 (11742367_at) / RFU PRRT2 (11749266_a_at) / Fold change /veh PRRT2 (11749266_a_at) / RFU SNX32 (11753110_a_at) / Fold change /veh SNX32 (11753110_a_at) / RFU CDHR5 (11726645_a_at) / Fold change /veh CDHR5 (11726645_a_at) / RFU RCAN1 (11760418_a_at) / Fold change /veh RCAN1 (11760418_a_at) / RFU FAM167A (11723789_a_at) / Fold change /veh FAM167A (11723789_a_at) / RFU FAM26E (11764081_at) / Fold change /veh FAM26E (11764081_at) / RFU ISYNA1 (11749810_s_at) / Fold change /veh ISYNA1 (11749810_s_at) / RFU ACY1 (11761880_at) / Fold change /veh ACY1 (11761880_at) / RFU 11764098_at / Fold change /veh 11764098_at / RFU SAMD14 (11745864_x_at) / Fold change /veh SAMD14 (11745864_x_at) / RFU NPB (11741838_a_at) / Fold change /veh NPB (11741838_a_at) / RFU TMPRSS6 (11731388_a_at) / Fold change /veh TMPRSS6 (11731388_a_at) / RFU KRTAP10-2 (11738614_at) / Fold change /veh KRTAP10-2 (11738614_at) / RFU ARHGAP8 /// PRR5-ARHGAP8 (11727945_x_at) / Fold change /veh ARHGAP8 /// PRR5-ARHGAP8 (11727945_x_at) / RFU KRTAP5-7 /// NADSYN1 (11734609_at) / Fold change /veh KRTAP5-7 /// NADSYN1 (11734609_at) / RFU RASL12 (11751679_a_at) / Fold change /veh RASL12 (11751679_a_at) / RFU CDKN2B (11736163_a_at) / Fold change /veh CDKN2B (11736163_a_at) / RFU PRF1 (11729649_at) / Fold change /veh PRF1 (11729649_at) / RFU, ZNF638 /// ZNF638-IT1 / Fold change vs veh, ZNF638 /// ZNF638-IT1 / RFU, PANK3 / Fold change vs veh, PANK3 / RFU, SH3YL1 / Fold change vs veh, SH3YL1 / RFU, ZEB2 / Fold change vs veh, ZEB2 / RFU, NRIP1 / Fold change vs veh, NRIP1 / RFU, PTTG1IP / Fold change vs veh, PTTG1IP / RFU, CAPN2 / Fold change vs veh, CAPN2 / RFU, MED14 / Fold change vs veh, MED14 / RFU, SNORA58 / Fold change vs veh, SNORA58 / RFU, C1orf63 / Fold change vs veh, C1orf63 / RFU, LRRFIP1 / Fold change vs veh, LRRFIP1 / RFU, NDUFAF7 / Fold change vs veh, NDUFAF7 / RFU, SLC12A2 / Fold change vs veh, SLC12A2 / RFU, IBTK / Fold change vs veh, IBTK / RFU, ESF1 / Fold change vs veh, ESF1 / Fold change vs veh, TMEM50B / RFU, TAOK1 / Fold change vs veh, TAOK1 / RFU, ACBD3 / Fold change vs veh, ACBD3 / RFU, TMA16 / Fold change vs veh, TMA16 / RFU, RWDD3 / Fold change vs veh, RWDD3 / RFU, BCAT1 / Fold change vs veh, BCAT1 / RFU, EDEM3 / Fold change vs veh, EDEM3 / RFU, TMEM33 / Fold change vs veh, TMEM33 / RFU, WDR75 / Fold change vs veh, WDR75 / RFU, AHCTF1 / Fold change vs veh, AHCTF1 / RFU, TFRC / Fold change vs veh, TFRC / RFU, ZDHHC17 / Fold change vs veh, ZDHHC17 / RFU, NOM1 / Fold change vs veh, NOM1 / RFU, ARL8B / Fold change vs veh, ARL8B / RFU, ZBTB11 / Fold change vs veh, ZBTB11 / RFU, TAMM41 / Fold change vs veh, TAMM41 / RFU, KIAA1704 /// LOC100996395 / Fold change vs veh, KIAA1704 /// LOC100996395 / RFU, ING1 / Fold change vs veh, ING1 / RFU, TRMT61B / Fold change vs veh, TRMT61B / RFU, FUBP3 / Fold change vs veh, FUBP3 / RFU, TP53 / Fold change vs veh, TP53 / RFU, TNKS2 / Fold change vs veh, TNKS2 / RFU, ZFP14 / Fold change vs veh, ZFP14 / RFU, ACTR2 / Fold change vs veh, ACTR2 / RFU, PPP3R1 / Fold change vs veh, PPP3R1 / RFU, PIK3R1 / Fold change vs veh, PIK3R1 / RFU, HNRNPA1 / Fold change vs veh, HNRNPA1 / RFU, RNF170 / Fold change vs veh, RNF170 / RFU, ZNF28 / Fold change vs veh, ZNF28 / RFU, RNGTT / Fold change vs veh, RNGTT / RFU, OGT / Fold change vs veh, OGT / RFU, BRD1 / Fold change vs veh, BRD1 / RFU, MARS / Fold change vs veh, MARS / RFU, ZNF655 / Fold change vs veh, ZNF655 / RFU, FAHD1 / Fold change vs veh, FAHD1 / RFU, BDP1 / Fold change vs veh, BDP1 / RFU, LRRCC1 / Fold change vs veh, LRRCC1 / RFU, ARID1A / Fold change vs veh, ARID1A / RFU, ZNF146 / Fold change vs veh, ZNF146 / RFU, ZNF330 / Fold change vs veh, ZNF330 / RFU, GPN3 / Fold change vs veh, GPN3 / RFU, C9orf123 / Fold change vs veh, C9orf123 / RFU, N4BP2L2 / Fold change vs veh, N4BP2L2 / RFU, ARFIP1 / Fold change vs veh, ARFIP1 / RFU, FAM179B / Fold change vs veh, FAM179B / RFU, BCL10 / Fold change vs veh, BCL10 / RFU, UHRF1BP1L / Fold change vs veh, UHRF1BP1L / RFU, BET1 / Fold change vs veh, BET1 / RFU, CNOT2 / Fold change vs veh, CNOT2 / RFU, ZNF268 / Fold change vs veh, ZNF268 / Fold change vs veh, ZNF507 / RFU, DGCR2 / Fold change vs veh, DGCR2 / RFU, WDSUB1 / Fold change vs veh, WDSUB1 / Fold change vs veh, HSP90B1 /// MIR3652 / RFU, ADSS / Fold change vs veh, ADSS / RFU, GK / Fold change vs veh, GK / RFU, ZNF148 / Fold change vs veh, ZNF148 / RFU, TAF9 / Fold change vs veh, TAF9 / RFU, SLC1A5 / Fold change vs veh, SLC1A5 / RFU, SLMO2 / Fold change vs veh, SLMO2 / RFU, ABCC4 / Fold change vs veh, ABCC4 / RFU, LOC101060439 /// RAP1B / Fold change vs veh, LOC101060439 /// RAP1B / RFU, RFX7 / Fold change vs veh, RFX7 / RFU, GTPBP10 / Fold change vs veh, GTPBP10 / RFU, CNEP1R1 / Fold change vs veh, CNEP1R1 / RFU, BIVM-ERCC5 /// ERCC5 / Fold change vs veh, BIVM-ERCC5 /// ERCC5 / RFU, ILF3 / Fold change vs veh, ILF3 / RFU 11762660_at / Fold change /veh 11762660_at / RFU VCAN (11757783_s_at) / Fold change /veh VCAN (11757783_s_at) / RFU DDX43 (11728927_at) / Fold change /veh DDX43 (11728927_at) / RFU KRT8 (11758188_x_at) / Fold change /veh KRT8 (11758188_x_at) / RFU NKD1 (11759106_at) / Fold change /veh NKD1 (11759106_at) / RFU SRD5A1 (11742802_a_at) / Fold change /veh SRD5A1 (11742802_a_at) / RFU TPSAB1 /// TPSB2 (11721975_s_at) / Fold change /veh TPSAB1 /// TPSB2 (11721975_s_at) / RFU GSTM3 (11746129_a_at) / Fold change /veh GSTM3 (11746129_a_at) / RFU IL23R (11737362_x_at) / Fold change /veh IL23R (11737362_x_at) / RFU TMEM51 (11727254_a_at) / Fold change /veh TMEM51 (11727254_a_at) / RFU PIWIL2 (11732686_x_at) / Fold change /veh PIWIL2 (11732686_x_at) / RFU ORM1 (11744905_x_at) / Fold change /veh ORM1 (11744905_x_at) / RFU CCDC152 (11743942_at) / Fold change /veh CCDC152 (11743942_at) / RFU ECM1 (11717891_a_at) / Fold change /veh ECM1 (11717891_a_at) / RFU IL23R (11748794_a_at) / Fold change /veh IL23R (11748794_a_at) / RFU TNFAIP8L3 (11732012_x_at) / Fold change /veh TNFAIP8L3 (11732012_x_at) / RFU MBOAT4 (11741988_at) / Fold change /veh MBOAT4 (11741988_at) / RFU 11764193_at / Fold change /veh 11764193_at / RFU TMEM53 (11763286_at) / Fold change /veh TMEM53 (11763286_at) / RFU MAGEB2 (11727129_at) / Fold change /veh MAGEB2 (11727129_at) / RFU TMEM200A (11744735_a_at) / Fold change /veh TMEM200A (11744735_a_at) / RFU CCDC152 (11751479_a_at) / Fold change /veh CCDC152 (11751479_a_at) / RFU FAM211A (11726209_a_at) / Fold change /veh FAM211A (11726209_a_at) / RFU RGS16 (11746705_a_at) / Fold change /veh RGS16 (11746705_a_at) / RFU VCAN (11755009_s_at) / Fold change /veh VCAN (11755009_s_at) / RFU RHOB (11743442_s_at) / Fold change /veh RHOB (11743442_s_at) / RFU RGS16 (11720943_a_at) / Fold change /veh RGS16 (11720943_a_at) / RFU RGS16 (11720944_at) / Fold change /veh RGS16 (11720944_at) / RFU, VPS4B / Fold change vs veh, VPS4B / RFU, CREB1 / Fold change vs veh, CREB1 / RFU, DNAJC13 / Fold change vs veh, DNAJC13 / RFU, GNAQ / Fold change vs veh, GNAQ / RFU, CDK5R1 / Fold change vs veh, CDK5R1 / RFU, ZRANB3 / Fold change vs veh, ZRANB3 / RFU, CUL4A / Fold change vs veh, CUL4A / RFU, CCNY / Fold change vs veh, CCNY / RFU, UFL1 / Fold change vs veh, UFL1 / RFU, COG3 / Fold change vs veh, COG3 / RFU, DIAPH2 / Fold change vs veh, DIAPH2 / RFU, SKA2 / Fold change vs veh, SKA2 / RFU, AFF3 / Fold change vs veh, AFF3 / RFU, LMF1 / Fold change vs veh, LMF1 / RFU, IPO11 / Fold change vs veh, IPO11 / RFU, DFFB / Fold change vs veh, DFFB / RFU, FOXP1 / Fold change vs veh, FOXP1 / RFU, CARD8 / Fold change vs veh, CARD8 / RFU, STRN3 / Fold change vs veh, STRN3 / RFU, ADK / Fold change vs veh, ADK / RFU, RASSF2 / Fold change vs veh, RASSF2 / RFU, WIPF1 / Fold change vs veh, WIPF1 / RFU, LARP1B / Fold change vs veh, LARP1B / RFU, RASA1 / Fold change vs veh, RASA1 / RFU, RB1 / Fold change vs veh, RB1 / RFU, PPFIA1 / Fold change vs veh, PPFIA1 / RFU, MAT2A / Fold change vs veh, MAT2A / RFU, CCT5 / Fold change vs veh, CCT5 / RFU, WDR92 / Fold change vs veh, WDR92 / RFU, CUX1 / Fold change vs veh, CUX1 / RFU, TTC7A / Fold change vs veh, TTC7A / RFU, TMEM135 / Fold change vs veh, TMEM135 / RFU, DEPTOR / Fold change vs veh, DEPTOR / RFU, CPM / Fold change vs veh, CPM / RFU, DNAJB6 / Fold change vs veh, DNAJB6 / RFU, CACNA2D3 / Fold change vs veh, CACNA2D3 / RFU, DTX4 / Fold change vs veh, DTX4 / RFU, TFCP2 / Fold change vs veh, TFCP2 / RFU, GMCL1 /// GMCL1P1 / Fold change vs veh, GMCL1 /// GMCL1P1 / RFU, AEBP2 / Fold change vs veh, AEBP2 / RFU, SNHG1 /// SNORD22 /// SNORD25 /// SNORD26 /// SNORD27 /// SNORD28 /// SNORD29 /// SNORD31 / Fold change vs veh, SNHG1 /// SNORD22 /// SNORD25 /// SNORD26 /// SNORD27 /// SNORD28 /// SNORD29 /// SNORD31 / Fold change (Aza/veh), C12orf56 (ProbeSet 11735607_a_at) / Fold change (ACY-1035/veh), C12orf56 (ProbeSet 11735607_a_at) / Fold change (Aza/veh), FGFR1OP (ProbeSet 11751329_s_at) / Fold change (ACY-1035/veh), FGFR1OP (ProbeSet 11751329_s_at) / Fold change (Aza/veh), VPS36 (ProbeSet 11739960_a_at) / Fold change (ACY-1035/veh), VPS36 (ProbeSet 11739960_a_at) / RFU SYPL1 (11715823_x_at) / Fold change /veh SYPL1 (11715823_x_at) / RFU IGFBP7 (11715501_s_at) / Fold change /veh IGFBP7 (11715501_s_at) / RFU REEP3 (11722064_at) / Fold change /veh REEP3 (11722064_at) / RFU IGLL1 (11728026_x_at) / Fold change /veh IGLL1 (11728026_x_at): dose or concentration left out as unconfirmed", "settings": "ProbeSet 11716931_at; LIST B", "data": [{"compound": "Nc1ncn([C@@H]2O[C@H](CO)[C@@H](O)[C@H]2O)c(=O)n1", "note": "[azacitidine]", "values": [{"measurement": "RFU, DGCR2", "result": 177.81, "unit": "RFU"}]}]}
